Test results from PubChem BioAssay AID2060335 (Molecular Pharmacology Branch, DTP, NCI, 2025).
pIC50: −log10 of the molar value.

Tested on: DU-145 multicell spheroids with HUVEC/MSC, viability
Test: Anticancer human tumor DU-145 cell line growth inhibition [IpAb];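 further: spheroids exposed to agents for seven days before measurement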;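 on viability, T/C: percent of DMSO vehicle control viability so 100% = untreated level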
Conditions: for pIC50: curve of first compound; for viability, T/C: stronger effect = lower value
From the text: Combinatorial screen of targeted agents with ipatasertib and abemaciclib in multi-cell type tumor spheroids
A high-throughput screen of multi-cell type tumor spheroids was designed to identify active combinations of targeted small molecules and ipatasertib or abemaciclib. Complex spheroids include a stromal component modeled by human endothelial cells (HUVEC) and fibroblasts modeled by human mesenchymal stem cells (MSCs). The concentration ranges selected for each drug and investigational agent were based upon clinically achievable concentrations if the clinical Cmax of the agent was known.
Compounds. The drugs and investigational agents: ipatasertib (NSC767898), abemaciclib(NSC768073), selumetinib (NSC741078), trametinib (758246), adavosertib (NSC754352), everolimus (NSC733504), sapanisertib (NSC764658), vemurafenib (NSC761431), venetoclax (NSC766270), copanlisib (NSC809693), apelisib (NSC765974), palbociblib (NSC758247), vemurafenib (NSC761431), dabrafenib (NSC764134), ravoxertinib (NSC781343), BMS-387032 (NSC767048), sotorasib (NSC818433), talazoparib (NSC767125) and afursertib (NSC778305), were obtained from the National Cancer Institute (NCI) Developmental Therapeutics Program Chemical Repository. The FDA-approved anticancer drug set is available from the NCI Developmental Therapeutics Program. […] The stock solutions were prepared in dimethyl sulfoxide (DMSO, Sigma-Aldrich, St. Louis, MO, cat. D2650) at 800-fold the tested concentration and stored at -70 degrees C prior to their use. All drugs and investigational agents were tested over a range starting from a high concentration at or near the clinical Cmax and decreasing in half-log increments. If the clinical Cmax for an agent had not been determined, the highest concentration tested was 10 microM.
NCI60 Cell Culture. NCI60 cell lines were obtained from the NCI Developmental Therapeutics Program Tumor Repository. For each lot of cells, the Repository performed Applied Biosystems AmpFLSTR Identifiler testing with PCR amplification to confirm consistency with the published Identifier STR profile for each cell line. Cells were kept in continuous culture for no more than 20 passages. The optimal seeding densities for each of the cell lines at each time point assessed were determined prior to performing the concentration response studies. Briefly, the NCI60 human tumor lines were grown as monolayers in RPMI 1640 medium supplemented with 10% FBS and 2 mmol/L L-glutamine.
An additional 9 lines were from the NCI60 cell line panel including MDA-MB-231 breast carcinoma, MDA-MB-468 breast carcinoma, MCF7 breast carcinoma, Hs578T breast carcinoma, MALME-3M melanoma, SK-MEL-2 melanoma, SK-OV-3 ovarian carcinoma, DU-145 prostate carcinoma, PC-3 prostate carcinoma, all cell lines along with major genetic alterations are listed on Table 2. Pooled donor human umbilical vein endothelial cells (HUVEC, Lonza, cat. CC-2519) and human mesenchymal stem cells (hMSC, Lonza, cat. PT-2501) were purchased from Lonza (Walkersville, MD).
PDMR cell lines were grown in complete medium (DC medium): Dulbecco's modified Eagle's medium (DMEM)/F12 supplemented with 5% fetal bovine serum (FBS), 2 mM L-glutamine, 100 U/mL penicillin and 100 µg/ml streptomycin, 0.4 µg/ml hydrocortisone, 10 ng/ml epidermal growth factor (EGF) recombinant human protein, 24 µg/mL adenine, and 0.1 mg/mL primocin. During culture from frozen stock vials, PDMR cells were cultured in the same medium containing 10 µM Y-27632 (see Table 3). The PDCs were cultured in complete DMEM/F12 media without 10 microM Y-27632 dihydrochloride for at least two passages prior to the screen. The pooled donor HUVEC and hMSC were cultured in endothelial cell growth medium 2 (PromoCell, Heidelberg, Germany, cat. C-22011) and mesenchymal stem cell growth medium 2 (PromoCell, cat. C-28009), respectively. For all experiments, HUVEC and hMSC were used at passages </=5.
[…]

[1] = second compound 0.1 µM, first compound 0.0316 µM
[2] = second compound 0.1 µM, first compound 0.1 µM
[3] = second compound 0.1 µM, first compound 0.316 µM
[4] = second compound 0.1 µM, first compound 1 µM
[5] = second compound 0.1 µM, first compound 3.16 µM
[6] = second compound 0.1 µM, first compound 10 µM
[7] = second compound 0.316 µM, first compound 0.0316 µM
[8] = second compound 0.316 µM, first compound 0.1 µM
[9] = second compound 0.316 µM, first compound 0.316 µM
[10] = second compound 0.316 µM, first compound 1 µM
[11] = second compound 0.316 µM, first compound 3.16 µM
[12] = second compound 0.316 µM, first compound 10 µM
[13] = second compound 1 µM, first compound 0.0316 µM
[14] = second compound 1 µM, first compound 0.1 µM
[15] = second compound 1 µM, first compound 0.316 µM
[16] = second compound 1 µM, first compound 1 µM
[17] = second compound 1 µM, first compound 3.16 µM
[18] = second compound 1 µM, first compound 10 µM
[19] = second compound 3.16 µM, first compound 0.0316 µM
[20] = second compound 3.16 µM, first compound 0.1 µM
[21] = second compound 3.16 µM, first compound 0.316 µM
[22] = second compound 3.16 µM, first compound 1 µM
[23] = second compound 3.16 µM, first compound 3.16 µM
[24] = second compound 3.16 µM, first compound 10 µM
[25] = second compound 10 µM, first compound 0.0316 µM
[26] = second compound 10 µM, first compound 0.1 µM
[27] = second compound 10 µM, first compound 0.316 µM
[28] = second compound 10 µM, first compound 1 µM
[29] = second compound 10 µM, first compound 3.16 µM
[30] = second compound 10 µM, first compound 10 µM

Compound `Cc1nc(NC(=O)N2CCCC2C(N)=O)sc1-c1ccnc(C(C)(C)C(F)(F)F)c1` (stereo not given) + CC(C)NCC(C(=O)N1CCN(c2ncnc3c2C(C)CC3O)CC1)c1ccc(Cl)cc1 has a pIC50 (second compound 0.1 µM) of 7.02, a pIC50 (second compound 0.316 µM) greater than 7.50 and a pIC50 (second compound 1 µM) greater than 7.50. It also gave a pIC50 (second compound 3.16 µM) greater than 7.50, a pIC50 (second compound 10 µM) greater than 7.50 and a viability, T/C [1] of 65.7%. It also gave a viability, T/C [2] of 49.2%, a viability, T/C [3] of 32.1% and a viability, T/C [4] of 27.9%. For the same compound, the viability, T/C [5] was 18.1%, the viability, T/C [6] was 7.81% and the viability, T/C [7] was 40%. For the same compound, the viability, T/C [8] was 35%, the viability, T/C [9] was 26.2% and the viability, T/C [10] was 22.4%. For the same compound, the viability, T/C [11] was 14.7%, the viability, T/C [12] was 6.56% and the viability, T/C [13] was 27.1%. It also gave a viability, T/C [14] of 24.3%, a viability, T/C [15] of 20.5% and a viability, T/C [16] of 17.1%. The viability, T/C [17] was 12.4%, the viability, T/C [18] was 5.68% and the viability, T/C [19] was 18.3%. The viability, T/C [20] was 18.5%, the viability, T/C [21] was 14.1% and the viability, T/C [22] was 14%. For the same compound, the viability, T/C [23] was 8.48%, the viability, T/C [24] was 5.66% and the viability, T/C [25] was 14.9%. For the same compound, the viability, T/C [26] was 13.5%, the viability, T/C [27] was 11.8% and the viability, T/C [28] was 9.73%. For the same compound, the viability, T/C [29] was 8.28% and the viability, T/C [30] was 5.36%.
In the case of `CC(=O)c1c(C)c2cnc(Nc3ccc(N4CCNCC4)cn3)nc2n(C2CCCC2)c1=O` + CC(C)NCC(C(=O)N1CCN(c2ncnc3c2C(C)CC3O)CC1)c1ccc(Cl)cc1, the pIC50 (second compound 0.1 µM) was less than 6.52, the pIC50 (second compound 0.316 µM) was less than 6.52 and the pIC50 (second compound 1 µM) was greater than 9.02. For the same compound, the pIC50 (second compound 3.16 µM) was greater than 9.02, the pIC50 (second compound 10 µM) was greater than 9.02 and the viability, T/C (second compound 0.1 µM, first compound 0.000949 µM) was 85.3%. The viability, T/C (second compound 0.1 µM, first compound 0.003 µM) was 79.7%, the viability, T/C (second compound 0.1 µM, first compound 0.00949 µM) was 83.4% and the viability, T/C (second compound 0.1 µM, first compound 0.03 µM) was 89.2%. The viability, T/C (second compound 0.1 µM, first compound 0.0949 µM) was 81.8%, the viability, T/C (second compound 0.1 µM, first compound 0.3 µM) was 83.7% and the viability, T/C (second compound 0.316 µM, first compound 0.000949 µM) was 53%. For the same compound, the viability, T/C (second compound 0.316 µM, first compound 0.003 µM) was 52.1%, the viability, T/C (second compound 0.316 µM, first compound 0.00949 µM) was 52.2% and the viability, T/C (second compound 0.316 µM, first compound 0.03 µM) was 48.1%. It also gave a viability, T/C (second compound 0.316 µM, first compound 0.0949 µM) of 48.8%, a viability, T/C (second compound 0.316 µM, first compound 0.3 µM) of 54.7% and a viability, T/C (second compound 1 µM, first compound 0.000949 µM) of 29.3%. It also gave a viability, T/C (second compound 1 µM, first compound 0.003 µM) of 30.7%, a viability, T/C (second compound 1 µM, first compound 0.00949 µM) of 28.9% and a viability, T/C (second compound 1 µM, first compound 0.03 µM) of 28.7%. The viability, T/C (second compound 1 µM, first compound 0.0949 µM) was 28.6%, the viability, T/C (second compound 1 µM, first compound 0.3 µM) was 27.8% and the viability, T/C (second compound 3.16 µM, first compound 0.000949 µM) was 20.3%. It also gave a viability, T/C (second compound 3.16 µM, first compound 0.003 µM) of 19.7%, a viability, T/C (second compound 3.16 µM, first compound 0.00949 µM) of 19.2% and a viability, T/C (second compound 3.16 µM, first compound 0.03 µM) of 19.5%. It also gave a viability, T/C (second compound 3.16 µM, first compound 0.0949 µM) of 20.3%, a viability, T/C (second compound 3.16 µM, first compound 0.3 µM) of 19.9% and a viability, T/C (second compound 10 µM, first compound 0.000949 µM) of 16.8%. For the same compound, the viability, T/C (second compound 10 µM, first compound 0.003 µM) was 15.5%, the viability, T/C (second compound 10 µM, first compound 0.00949 µM) was 15.5% and the viability, T/C (second compound 10 µM, first compound 0.03 µM) was 17.2%. The viability, T/C (second compound 10 µM, first compound 0.0949 µM) was 15.6% and the viability, T/C (second compound 10 µM, first compound 0.3 µM) was 16.1%.
`C=CCn1c(=O)c2cnc(Nc3ccc(N4CCN(C)CC4)cc3)nc2n1-c1cccc(C(C)(C)O)n1` + CC(C)NCC(C(=O)N1CCN(c2ncnc3c2C(C)CC3O)CC1)c1ccc(Cl)cc1 gave a pIC50 (second compound 0.1 µM) of 7.08, a pIC50 (second compound 0.316 µM) greater than 7.50 and a pIC50 (second compound 1 µM) greater than 7.50. The pIC50 (second compound 3.16 µM) was greater than 7.50, the pIC50 (second compound 10 µM) was greater than 7.50 and the viability, T/C [1] was 71%. It also gave a viability, T/C [2] of 47.1%, a viability, T/C [3] of 26.5% and a viability, T/C [4] of 23.9%. The viability, T/C [5] was 17.5%, the viability, T/C [6] was 13.7% and the viability, T/C [7] was 44.6%. It also gave a viability, T/C [8] of 36.7%, a viability, T/C [9] of 19.3% and a viability, T/C [10] of 18.8%. The viability, T/C [11] was 15.8%, the viability, T/C [12] was 12.9% and the viability, T/C [13] was 32.7%. It also gave a viability, T/C [14] of 26.6%, a viability, T/C [15] of 13.3% and a viability, T/C [16] of 15.1%. The viability, T/C [17] was 14.3%, the viability, T/C [18] was 12.6% and the viability, T/C [19] was 23%. It also gave a viability, T/C [20] of 16.1%, a viability, T/C [21] of 10% and a viability, T/C [22] of 12%. It also gave a viability, T/C [23] of 11.8%, a viability, T/C [24] of 10.4% and a viability, T/C [25] of 16.9%. The viability, T/C [26] was 14%, the viability, T/C [27] was 8.4% and the viability, T/C [28] was 10.6%. It also gave a viability, T/C [29] of 9.3% and a viability, T/C [30] of 9.33%.
